Several values for one entry are separate records, joined by “and”; a condition that tells them apart may be missing. Equal entries are not always repeated. Where two headings read alike, the source gives them in different places.
Tests used:
[1] = In vitro-in vivo extrapolation (IVIVE) to Css and administered equivalent dose (AED); design: species or system human; conditions: for Clhep: IVIVE, hepatocyte Clint scaled to whole-liver clearance; for AED: administered equivalent dose from LOEC and Css; for Fub: fub=fup/(B:P), Fub set to 1 if needed; for CLint: scaled with HPGL 110 mill cells/g, Vl 1596 g
Procedure: Using the experimentally generated PPB (fraction unbound in plasma, fup) and hepatic Clint data, IVIVE was performed as previously described to calculate human steady-state plasma concentrations (Css). Briefly, experimental measures of fup are adjusted using blood:plasma partitioning information to estimate the fraction unbound in blood (fub). Experimental hepatocyte Clint data are scaled up to represent whole-liver clearance (L/h). […] Once estimated, these Css values are considered in conjunction with published in vitro bioactivity concentrations (i.e., lowest-observed effective concentrations, or LOECs) to calculate AEDs (Table 2). See Table S10 for all relevant IVIVE inputs, scalars, calculations, and outputs.

human plasma [2] = experiment: Chemical stability in plasma over the UC assay time course (T5hr/T1hr); conditions: for PPB_Stab_Fail: flag for stability failure in the plasma protein binding assay (1 = fail, 0 = pass); for Mean Stability: mean T5hr/T1hr ratio over all replicates and runs, plasma; for Stability (T5hr/ T1hr), replicates A, B, C: single replicate of one UC run
in vitro = conditions: both, human, plasma
human primary cells = conditions: cited from earlier work
[3] = Hepatic metabolic stability (hepatocyte clearance) assay, substrate depletion; format: in vitro ADME, human; conditions: both sexes, human, hepatocytes
Excerpt: (§1) William’s Medium E (Gibco A1217601), dexamethasone, and cell maintenance cocktail B (Gibco CM4000) were obtained from Thermo Fisher Scientific (Waltham, MA, USA). Hepatosure OptiThaw media (P/N K8000; Lot No. 18–1–0322) was obtained from Sekisui Xenotech (Kansas City, KS, USA). Trypan blue solution (P/N 1450021) was obtained from Bio-Rad (Hercules, CA, USA). Pooled human cryopreserved primary hepatocyte suspensions were obtained from BioIVT (Westbury, NY, USA) and produced using nontransplantable tissue. The human 50-donor pool (mixed gender; Cat X0080005; Lot MYC), selected from BioIVT’s commercially available, prepooled lots, was selected following review of vendor-generated metabolic characterization information. Pooled, mixed-sex human plasma from de-identified donors was obtained from a commercial vendor that operates a U.S. Food and Drug Administration-licensed and inspected donor center (BioIVT bioivt.com (accessed 12 May 2023). Donors comprised five males and five females and ranged from 20 to 50 years of age. Plasma collected using anticoagulant K2EDTA was sterile-filtered ([…]) and stored at <−70 °C until use.
(§2) The hepatic metabolic stability assay measures the loss of a parent compound over time in a substrate-depletion approach. Briefly, hepatocyte suspensions, after a viability assessment, were diluted in complete William’s medium E (containing dexamethasone and cell maintenance cocktail B) prior to addition to 96-well polypropylene plates containing an equal volume of media spiked with the test compound (1 μM assay concentration; assay cell density = 50,000 cells/100 μL) and maintained at 37 °C with shaking. At each time point, relevant plates were crashed with an equal volume of ice-cold acetonitrile, centrifuged, and supernatant transferred to a new plate prior to storage at <−70 °C until quantitative analysis. Controls, run in parallel, included cell-free (i.e., media only) and metabolically inactivated hepatocytes to evaluate abiotic chemical stability in the aqueous media matrix with and without cellular protein. In preliminary runs, these controls were run at T0 and T240 only. If significant instability was noted, the hepatocyte clearance assay was rerun, including cell-free samples at each time point and metabolically inactivated hepatocytes at selected time points.
(§3) To process samples for quantitative analysis, samples were thawed and mixed. An aliquot of sample was removed and diluted in acetonitrile (1 part sample plus 9 parts acetonitrile) containing the relevant ISs selected for the PFAS being analyzed (See Table S2). The target at instrument concentration of each IS was 10 pg/μL.
(§4) The curves were generated using concentration/response ratios from the target analyte and IS, with either linear or quadratic regression models. The model and weighting, if necessary, were chosen to most accurately reflect the response of each compound and was evaluated by recalculating the individual calibration points using the curve. An acceptable model reflected an accuracy of ±30% of the theoretical value.
(§5) Hepatic metabolic clearance data were plotted in semi-log format (ln concentration vs. time) with three replicates at each time point, as previously described. […] The equations described below are used to calculate the chemical half-life (T½) and intrinsic in vitro clearance (Clin vitro) with units of μL/(min × million hepatocytes). In Equation (3), 2000 is a scalar used to adjust the assay cell number up to be consistent with units of 1 million cells in the Clint equation.
(§6) Negative controls, including media only and metabolically inactivated hepatocyte controls, were included to monitor abiotic loss (i.e., background clearance) during the assay. Where significant compound loss occurred using the analysis described above, background clearance rates were calculated and used to background-adjust hepatic metabolic clearance rates. […]

[4] = tested on: pooled human cryopreserved primary hepatocyte suspensions; experiment: as above; format: in vitro ADME
Excerpt: as §1, §2, §3, §4, §5, §6

[5] = Abiotic loss in negative controls of the hepatocyte clearance assay (cell-free media, metabolically inactivated hepatocytes); format: in vitro ADME; conditions: for Hep_Stab_Fail: flag for stability failure in hepatocyte clearance assay controls (1 or Fst = fail, 0 = pass); for Negative Controls, Heat Treated (HT), concentration at 0 min / Negative Controls, Heat Treated (HT), concentration at 240 min: heat treated hepatocytes; for Negative Controls, Heat Treated (HT), concentration at 0 min / Negative Controls, Heat Treated (HT), concentration at 240 min / Negative Controls, No cells (NC), concentration at 0 min / Negative Controls, No cells (NC), concentration at 240 min: Rep 1-3
In short: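 Test compound at 1 μM incubated at 37 °C with shaking in complete William's medium E, either cell-free or with metabolically inactivated hepatocytes, then quenched with ice-cold acetonitrile for quantitative analysis.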

human plasma [6] = experiment: Ultracentrifugation (UC) plasma protein binding assay, fraction unbound in plasma (fup); conditions: for fup: human plasma, 10 μM, 37 °C; for Fraction Unbound (fu), replicates A, B, C: single replicate of one UC run (aqueous fraction / Time 5 hr)
[7] = Assuming 1 mg/kg/day dose rate, BW 70 kg
[8] = human steady-state plasma concentration, assuming 1 mg/kg/day dosage
[9] = average of one UC run (run date in line above)
[10] = BioSeek lowest-observed effect concentration used for AED
[11] = minimum lowest-observed effect concentration, BioSeek platform
[12] = hepatocyte incubation, Rep 1-3, start conc 1000 nM
[13] = heat treated hepatocytes control, 0 vs 240 min
[14] = hepatocyte time course, NS = slope not significant

Cc1ccc(S(=O)(=O)OCC(F)(F)C(F)(F)C(F)(F)C(F)(F)C(F)(F)C(F)F)cc1 [1H,1H,7H-Perfluoroheptyl 4-methylbenzenesulfonate]
Css [1, 7]: 4.87 mg/L and 10.01 uM | Clhep [1]: 0.588 L/h | AED [1]: 0.6995 mg/kg/day | Fub [1]: 0.002357 | Css [1, 8]: 10.01 µM | CLint [1]: 4187106 µL/min | Stability (T5hr/ T1hr), Run-specific Avg (human plasma [2]; [9]): 0.983 | PPB_Stab_Fail (human plasma [2]): 0 | Mean Stability (human plasma [2]): 1.006 | Fstable.Med (human plasma [2]; median fraction stable in plasma, UC assay Level4): 1 | Stability (T5hr/ T1hr), replicates A, B, C (human plasma [2]): 0.9436 and 0.9774 and 1.0981 | fraction unbound (in vitro; Fraction Unbound (fu), Run-specific Avg, average of one UC run (run date in line above)): 0.03 | fraction unbound (in vitro; Mean fu, fraction unbound in human plasma, ultracentrifugation, some values based on eLOQ): 0.029 | LOEC (human primary cells; [10]): 7.00 µM | LOEC (human primary cells; [11]): 7 µM | hepatocyte CLint at 1 μM ([3]; background-subtracted, read-out: Bkgd-Sub Clearance (µL/min/106 hepatocytes)): 23.9 µL/min/1e6 cells | hepatocyte CLint at 1 μM ([3]; hepatocyte clearance, Conc 1000 nM, not background adjusted, read-out: Unadj Clint): 31 µL/min/1e6 cells | hepatocyte CLint at 1 μM ([3]; pooled human hepatocyte suspensions, 1 μM, read-out: In Vitro Clint): 23.9 µL/min/1e6 cells | hepatocyte CLint at 1 μM ([3]; unadjusted hepatocyte intrinsic clearance, read-out: Unadj in vitro Clint): 31 µL/min/1e6 cells | hepatocyte CLint at 1 μM ([3]; hepatocyte time course, NS = slope not significant, read-out: Linear Regression Results, Best-Fit Values, Clearance): 31 µL/min/1e6 cells | half-life at 1 μM ([3]; hepatocyte time course, NS = slope not significant, read-out: Linear Regression Results, Best-Fit Values, Half Life): 0.746 h | Concentration (nM), Time 15 min [4, 12]: 1073.03 nM and 1187.92 nM and 943.206 nM | Concentration (nM), Time 30 min [4, 12]: 985.478 nM and 1012.58 nM and 870.92 nM | Concentration (nM), Time 60 min [4, 12]: 899.811 nM and 874.355 nM and 982.505 nM | Linear Regression Results, Best-Fit Values, Slope ([4]; hepatocyte time course): -0.01549 | half-life at 1 μM ([5]; both sexes, human, heat treated hepatocytes control, 0 vs 240 min, read-out: HT BkgdCl, Half Life): 2.62 h | half-life at 1 μM ([5]; buffer, no cells control, 0 vs 240 min, read-out: No Cells BkgdCl, Half Life): 3.24 h | Hep_Stab_Fail [5]: 0 | HT BkgdCl, Slope [5, 13]: -0.004413 | Negative Controls, Heat Treated (HT), concentration at 0 min [5]: 1655.88 nM and 1540.88 nM and 2130.45 nM | Negative Controls, Heat Treated (HT), concentration at 240 min [5]: 752.335 nM and 712.914 nM and 422.601 nM | No Cells BkgdCl, Slope ([5]; no cells control, 0 vs 240 min): -0.003563 | Negative Controls, No cells (NC), concentration at 0 min [5]: 1381.59 nM and 1965.43 nM and 2200.38 nM | Negative Controls, No cells (NC), concentration at 240 min [5]: 723.371 nM and 790.633 nM and 803.182 nM | fup (human plasma [6]; ultracentrifugation): 0.0290 | Fup.Med (human plasma [6]; median fraction unbound in plasma, UC assay Level4): 0.116 | Fup.point (human plasma [6]; point estimate of fraction unbound in plasma, UC assay Level4): 0.0275 | Fraction Unbound (fu), replicates A, B, C (human plasma [6]): 0.01902 and 0.02822 and 0.04008

OCC(F)(F)C(F)(F)C(F)(F)CO [Hexafluoroamylene glycol]
Css [1, 7]: 0.44 mg/L and 2.07 uM | Clhep [1]: 0.000 L/h | AED [1]: 0.9667 mg/kg/day | Fub [1]: 1 | Css [1, 8]: 2.07 µM | Css ([1]; human steady-state plasma concentration, assuming 1 mg/kg/day dosage, listed as hexafluoroamylene glycol): 2.1 to 2.7 µM | CLint [1]: 0 µL/min | PPB_Stab_Fail (human plasma [2]): 0 | Mean Stability (human plasma [2]): 0.996 | Stability (T5hr/ T1hr), replicates A, B, C (human plasma [2]): 1.079 and 0.9916 and 0.917 | LOEC (human primary cells; [10]): 2.00 µM | LOEC (human primary cells; [11]): 2 µM | Bkgd-Sub Clearance (µL/min/106 hepatocytes) ([4]; background-subtracted): 0.00 µL/min/106 hepatocytes | Concentration (nM), Time 0 min [4, 12]: 904.289 nM and 891.557 nM and 657.581 nM | Concentration (nM), Time 15 min [4, 12]: 889.716 nM and 801.576 nM and 938.868 nM | Concentration (nM), Time 30 min [4, 12]: 774.463 nM and 733.048 nM and 756.418 nM | Concentration (nM), Time 60 min [4, 12]: 901.107 nM and 929.789 nM and 820.604 nM | Concentration (nM), Time 120 min [4, 12]: 865.693 nM and 807.871 nM and 671.853 nM | Concentration (nM), Time 240 min [4, 12]: 674.351 nM and 611.715 nM and 490.915 nM | Linear Regression Results, Best-Fit Values, Slope ([4]; hepatocyte time course): -0.001398 | Linear Regression Results, Best-Fit Values, Clearance [4, 14]: 2.796 | Linear Regression Results, Best-Fit Values, Half Life [4, 14]: 495.708 | clearance rate in hepatocytes ([4]; human hepatocyte suspensions, values as rounded or worded in text): no clearance | Hep_Stab_Fail [5]: 0 | HT BkgdCl, Half Life [5, 13]: 329.06 | HT BkgdCl, Slope [5, 13]: -0.002106 | Negative Controls, Heat Treated (HT), concentration at 0 min [5]: 941.377 nM and 735.79 nM and 794.754 nM | Negative Controls, Heat Treated (HT), concentration at 240 min [5]: 487.17 nM and 595.696 nM and 416.449 nM | No Cells BkgdCl, Half Life ([5]; no cells control, 0 vs 240 min): 490.099 | No Cells BkgdCl, Slope ([5]; no cells control, 0 vs 240 min): -0.001414 | Negative Controls, No cells (NC), concentration at 0 min [5]: 830.122 nM and 683.027 nM and 707.501 nM | Negative Controls, No cells (NC), concentration at 240 min [5]: 479.464 nM and 568.092 nM and 532.117 nM | Fraction Unbound (fu), Run-specific Avg (human plasma [6]; [9]): 0.68 | Mean fu (human plasma [6]; fraction unbound in human plasma, ultracentrifugation, some values based on eLOQ): 0.6770 | fup (human plasma [6]; ultracentrifugation): 0.6770 | fup (human plasma [6]; ultracentrifugation, listed as hexafluoroamylene glycol): 0.68 | Fraction Unbound (fu), replicates A, B, C (human plasma [6]): 0.6223 and 0.7422 and 0.6663

Source: paper PMC10223284, “Category-Based Toxicokinetic Evaluations of Data-Poor Per- and Polyfluoroalkyl Substances (PFAS) using Gas Chromatography Coupled with Mass Spectrometry” (Toxics, 2023)
